Experiments:
[1] = test system: IL-2 stimulated STAT5 phosphorylation in Tall-1 human T cell line; assay: Inhibition of IL-2 stimulated pSTAT5 in Tall-1 T cells; assay type: cell-based; conditions: AlphaLisa, read-out: pIC50, inhibition of IL-2 stimulated pSTAT5 (converted)
Protocol: The potency of test compounds for inhibition of interleukin-2 (IL-2) stimulated STAT5 phosphorylation was measured in the Tall-1 human T cell line (DSMZ) using AlphaLisa. Because IL-2 signals through JAK1/3, this assay provides a measure of JAK1/3 cellular potency.
Phosphorylated STAT5 was measured via the AlphaLISA SureFire Ultra pSTAT5 (Tyr694/699) kit (PerkinElmer). Human T cells from the Tall-1 cell line were cultured in a 37° C., 5% CO2 humidified incubator in RPMI (Life Technologies) supplemented with 15% Heat Inactivated Fetal Bovine Serum (FBS, Life Technologies), 2 mM Glutamax (Life Technologies), 25 mM HEPES (Life Technologies) and 1× Pen/Strep (Life Technologies). Compounds were serially diluted in DMSO and dispensed acoustically to empty wells. […] Phosphorylated STAT5 was measured via the pSTAT5 AlphaLisa kit (PerkinElmer). […] Luminescence was measured with excitation at 689 nm and emission at 570 nm using an EnVision plate r reader (PerkinElmer) under green filtered <100 lux light.
To determine the inhibitory potency of test compounds in response to IL-2, the average emission intensity of beads bound to pSTAT5 was measured in a human T cell line. IC50 values were determined from analysis of the inhibition curves of signal intensity versus compound concentration. Data are expressed as pIC50 (negative decadic logarithm IC50) values (mean±standard deviation).

[2] = test system: IL-2/anti-CD3 stimulated STAT5 phosphorylation in CD4+ T cells in human PBMCs; assay: Inhibition of IL-2 stimulated pSTAT5 in CD4+ T cells; assay type: cell-based; conditions: 0.5 h, 30 min stimulation, flow cytometry, read-out: pIC50, inhibition of IL-2 stimulated pSTAT5 in CD4+ T cells (converted)
Protocol: The potency of the test compound for inhibition of interleukin-2 (IL-2)/anti-CD3 stimulated STAT5 phosphorylation was measured in CD4-positive (CD4+) T cells in human peripheral blood mononuclear cells (PBMCs) isolated from human whole blood (Stanford Blood Center) using flow cytometry. Because IL-2 signals through JAK, this assay provides a measure of JAK cellular potency.
CD4+ T cells were identified using a […] (PE) conjugated anti-CD4 antibody (Clone RPA-T4, BD Biosciences), while an Alexa Fluor 647 conjugated anti-pSTAT5 antibody (pY694, Clone 47, BD Biosciences) was used to detect STAT5 phosphorylation. […]
(2) After cytokine stimulation, cells were fixed with pre warmed fix solution (200 μL; BD Biosciences) for 10 min at 37° C., 5% CO2, washed twice with DPBS buffer (1 mL, Life Technologies), and resuspended in ice cold Perm Buffer III (1000 μL, BD Biosciences) for 30 min at 4° C. […] After incubation, cells were washed twice in FACS buffer before being analyzed using a LSRII flow cytometer (BD Biosciences). To determine the inhibitory potency of the test compound in response to IL-2/anti-CD3, the median fluorescent intensity (MFI) of pSTAT5 was measured in CD4+ T cells. IC50 values were determined from analysis of the inhibition curves of MFI vs compound concentration.
Data are expressed as pIC50 (negative decadic logarithm IC50) values.

CDK2 = molecular target: T1, CDK2 (Homo sapiens, UniProt P24941); assay: Kinome screen, CDK2; assay type: binding; conditions: screened at 1 μM
T1 construct: made in house; host or cells: E. coli BL21-derived host (T7 phage) or HEK-293 cells
Protocol: Compounds 1 and C-1 were screened against other kinases to evaluate their selectivity profile.
Kinase-tagged T7 phage strains were grown in parallel in 24-well blocks in an E. coli host derived from the BL21 strain. E. coli were grown to log-phase and infected with T7 phage from a frozen stock (multiplicity of infection=0.4) and incubated with shaking at 32° C. until lysis (90-150 minutes). The lysates were centrifuged (6,000×g) and filtered (0.2 μm) to remove cell debris. The remaining kinases were produced in HEK-293 cells and subsequently tagged with DNA for qPCR detection.
Streptavidin-coated magnetic beads were treated with biotinylated small molecule ligands for 30 minutes at room temperature to generate affinity resins for kinase assays. The liganded beads were blocked with excess biotin and washed with blocking buffer (SeaBlock (Pierce), 1% BSA, 0.05% Tween 20, 1 mM DTT) to remove unbound ligand and to reduce non-specific phage binding. Binding reactions were assembled by combining kinases, liganded affinity beads, and test compounds in 1× binding buffer (20% SeaBlock, 0.17×PBS, 0.05% Tween 20, 6 mM DTT). Test compounds were prepared as 40× stocks in 100% DMSO and directly diluted into the assay. All reactions were performed in polypropylene 384-well plates in a final volume of 0.04 ml. […] The kinase concentration in the eluates was measured by qPCR. […]

CCc1cc(O)c(F)cc1-c1cc(F)c2c(-c3nc4c([nH]3)CCN(C(=O)[C@]35C[C@H]3CCN5)C4)n[nH]c2c1 [Compound 1, (1S,5R)-2-azabicyclo[3.1.0]hexan-1-yl(2-(6-(2-ethyl-5-fluoro-4-hydroxyphenyl)-4-fluoro-1H-indazol-3-yl)-6,7-dihydro-3H-imidazo[4,5-c]pyridin-5(4H)-yl)methanone]
IC50 [1]: 15.8 nM
IC50 [2]: 20 nM
inhibition at 1 µM (CDK2): 1%
